The target in the experiment is T1, Angiotensin-converting enzyme (Rattus norvegicus, UniProt P47820).
T1 sequence (P47820 whole entry): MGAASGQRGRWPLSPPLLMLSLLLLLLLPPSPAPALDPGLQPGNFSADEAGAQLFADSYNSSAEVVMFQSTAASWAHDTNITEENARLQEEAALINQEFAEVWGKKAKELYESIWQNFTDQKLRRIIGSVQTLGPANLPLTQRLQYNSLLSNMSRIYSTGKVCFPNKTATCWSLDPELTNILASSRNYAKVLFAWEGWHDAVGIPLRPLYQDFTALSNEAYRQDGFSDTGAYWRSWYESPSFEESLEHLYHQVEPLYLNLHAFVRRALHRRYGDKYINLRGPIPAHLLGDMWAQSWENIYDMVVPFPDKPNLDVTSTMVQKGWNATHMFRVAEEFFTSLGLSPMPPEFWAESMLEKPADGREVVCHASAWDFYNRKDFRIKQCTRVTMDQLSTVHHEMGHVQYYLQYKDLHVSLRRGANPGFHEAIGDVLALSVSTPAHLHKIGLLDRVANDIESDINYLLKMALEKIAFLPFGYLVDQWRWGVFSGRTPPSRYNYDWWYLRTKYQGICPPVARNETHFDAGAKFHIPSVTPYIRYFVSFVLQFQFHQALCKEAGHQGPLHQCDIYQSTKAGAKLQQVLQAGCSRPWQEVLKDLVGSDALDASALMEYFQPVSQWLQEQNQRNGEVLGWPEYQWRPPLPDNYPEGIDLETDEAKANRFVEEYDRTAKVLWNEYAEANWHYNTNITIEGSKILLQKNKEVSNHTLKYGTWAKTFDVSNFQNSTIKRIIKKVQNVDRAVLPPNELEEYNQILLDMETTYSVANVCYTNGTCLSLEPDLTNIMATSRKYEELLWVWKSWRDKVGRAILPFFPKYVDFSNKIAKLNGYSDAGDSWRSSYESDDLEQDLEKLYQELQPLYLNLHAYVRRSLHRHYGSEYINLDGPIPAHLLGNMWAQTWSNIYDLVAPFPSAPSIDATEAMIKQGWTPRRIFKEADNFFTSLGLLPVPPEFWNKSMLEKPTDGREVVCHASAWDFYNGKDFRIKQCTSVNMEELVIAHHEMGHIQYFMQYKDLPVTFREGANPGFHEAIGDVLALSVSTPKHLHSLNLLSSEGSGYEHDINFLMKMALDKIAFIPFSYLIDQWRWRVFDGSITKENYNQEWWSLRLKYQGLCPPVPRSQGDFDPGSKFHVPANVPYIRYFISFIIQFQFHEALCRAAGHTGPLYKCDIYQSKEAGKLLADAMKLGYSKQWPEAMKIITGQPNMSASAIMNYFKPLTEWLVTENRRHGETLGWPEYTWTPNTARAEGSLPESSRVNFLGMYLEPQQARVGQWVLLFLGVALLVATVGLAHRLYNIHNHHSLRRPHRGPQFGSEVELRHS
Put plainly: In vivo inhibitory activity against Angiotensin I converting enzyme was evaluated in renal hypertensive rats. The conditions noted are these: read-out: I50. The class given is organism-based.
In the case of `O=C(CCS)N1CCCC1P(=O)(O)O` (centres undefined), the IC50 turned out to be 1700 nM.

As to `C[C@@H](CS)C(=O)N1CCC[C@H]1C(=O)NO`, the IC50 is 22 nM.

Regarding `C[C@@H](CS)C(=O)N1CCC[C@H]1c1nn[nH]n1`, the IC50 came to 260 nM.

`O=C(O)[C@@H]1CCCN1C(=O)CCS`: the IC50 amounted to 200 nM.

Source of the values: ChEMBL document CHEMBL1122915, “Synthesis and biological activity of carboxylic acid replacement analogues of the potent angiotensin converting enzyme inhibitor 5(S)-benzamido-4-oxo-6-phenylhexanoyl-L-proline” (J Med Chem, 1985).
